Assay results published in ChEMBL document CHEMBL2203141, “Heterologously expressed β-hydroxyl fatty acids from a metagenomic library of a marine sponge” (2012).
Active and inactive are the calls of the source.

Experiments:
Aspergillus fumigatus = experiment: Antifungal activity against Aspergillus fumigatus by serial two-fold dilution microtiter plate method; assay type: functional
[1] = Antifungal activity against Penicillium commune by serial two-fold dilution microtiter plate method; assay type: functional
Wickerhamomyces anomalus = experiment: Antifungal activity against Pichia anomala by serial two-fold dilution microtiter plate method; assay type: functional; conditions: Hansenula anomala
Aspergillus nidulans = experiment: Antifungal activity against Aspergillus nidulans by serial two-fold dilution microtiter plate method; assay type: functional
Penicillium roqueforti = experiment: Antifungal activity against Penicillium roqueforti by serial two-fold dilution microtiter plate method; assay type: functional
[2] = Antifungal activity against […] mucilaginosa by serial two-fold dilution microtiter plate method; assay type: functional
Kluyveromyces marxianus = experiment: Antifungal activity against Kluyveromyces marxianus by serial two-fold dilution microtiter plate method; assay type: functional
Bacillus cereus = experiment: Antibacterial activity against Bacillus cereus by broth dilution method; assay type: functional
Staphylococcus aureus = experiment: Antibacterial activity against methicillin-resistant Staphylococcus aureus by broth dilution method; assay type: functional, organism-based
Candida albicans = experiment: Antifungal activity against Candida albicans by broth dilution; assay type: functional
Escherichia coli = experiment: Antibacterial activity against Escherichia coli by broth dilution method; assay type: functional, organism-based

CCCCCCCCCCC[C@@H](O)CC(=O)O
10 µg/mL: MIC (Aspergillus fumigatus) | MIC [1] | MIC (Wickerhamomyces anomalus) | MIC (Aspergillus nidulans) | MIC (Penicillium roqueforti) | MIC [2] | MIC (Kluyveromyces marxianus)

CCCCCCCCCCCCC[C@@H](O)CC(=O)O
inactive: Activity (Staphylococcus aureus) | Activity (Escherichia coli)
6.25 µg/mL: MIC (Bacillus cereus)
12.5 µg/mL: MIC (Candida albicans)

CCCCCCCCC[C@@H](O)CC(=O)O
10 µg/mL: MIC (Aspergillus fumigatus) | MIC [1] | MIC (Wickerhamomyces anomalus) | MIC (Aspergillus nidulans) | MIC (Penicillium roqueforti) | MIC [2] | MIC (Kluyveromyces marxianus)
